Laboratory results: patent publication US7445765B2, “Radiopharmaceutical for diagnostic imaging containing a technetium-99m nitride heterocomplex” (Nihon Medi-Physics Co., Ltd., priority 2000, dated 2008)

Experiment: Biodistribution of the 99mTc(N) heterocomplexes in rats (organ uptake, heart accumulation, heart/lung and heart/liver ratios)
Type: in vivo, female Sprague-Dawley rats
Conditions: for Heart/liver ratio in biodistribution / Heart/lung ratio in biodistribution / Heart accumulation: rats
Protocol: The biodistribution was measured by using female Sprague-Dawley rats (SD rats) weighing 200 g to 250 g. Each of the ^99mTc(N) heterocomplexes purified in the manner described above was diluted with phosphate buffer (0.1 M, pH=7.4) to obtain a final solution having an ethanol content of 10%. After the SD rats were anesthetized with an intramuscular injection of a mixture of ketamine (80 mg/kg) and xilazine (19 mg/kg), the jugular vein of each rat was surgically exposed and 100 μL (300 to 370 kBq) of the solution containing each ^99mTc(N) heterocomplexes prepared in the manner described above was injected in the jugular vein. The rats (n=3) were sacrificed by cervical dislocation at different times post injection. The blood was withdrawn from the heart through a syringe and counted. It was assumed that the whole blood content was 6.5% of the total body weight. The organs were excised from the rats, washed with physiological saline, weighed, and counted in a NaI well counter.
For comparison, Tables 19 and 20 show the results, obtained in the same manner as above, of measuring the biodistribution of (^99mTc) (MIBI) and (^99mTc) (Tf) which have been used as pharmaceuticals for diagnostic imaging for blood flow in myocardium.
Tables 21 to 23 show data showing the variations with time of heart accumulation, heart/lung ratios and heart/liver ratios for the ^99mTc(N) heterocomplexes of the present invention.

Structure (SMILES): CCOCCN1CC[P](CCCOC)(CCCOC)[99Tc+]2(#[N])([S]C(N(CCOCC)C(C)C)=[S]2)[P](CCCOC)(CCCOC)CC1 [[^99mTc(N) (PNP5) (ISOET)]^+]
- Biodistribution in rats: Adrenal glands (2 min post injection): 2.24 % dose/g
- Biodistribution in rats: Blood (2 min post injection): 0.14 % dose/g
- Biodistribution in rats: Brain (2 min post injection): 0.02 % dose/g
- Biodistribution in rats: Heart (2 min post injection): 2.33 % dose/g
- Biodistribution in rats: Intestine (2 min post injection): 3.68 % dose/g
- Biodistribution in rats: Kidneys (2 min post injection): 7.19 % dose/g
- Biodistribution in rats: Liver (2 min post injection): 2.79 % dose/g
- Biodistribution in rats: Lungs (2 min post injection): 0.74 % dose/g
- Biodistribution in rats: Muscle (2 min post injection): 0.16 % dose/g
- Biodistribution in rats: Spleen (2 min post injection): 1.11 % dose/g
- Biodistribution in rats: Submax. glands (2 min post injection): 0.95 % dose/g
- Biodistribution in rats: Adrenal glands (10 min (Table 16)): 2.22 % dose/g
- Biodistribution in rats: Blood (10 min (Table 16)): 0.93 % dose/g
- Biodistribution in rats: Brain (10 min (Table 16)): 0.10 % dose/g
- Biodistribution in rats: Heart (10 min (Table 16)): 3.35 % dose/g
- Biodistribution in rats: Intestine (10 min (Table 16)): 3.70 % dose/g
- Biodistribution in rats: Kidneys (10 min (Table 16)): 5.40 % dose/g
- Biodistribution in rats: Liver (10 min (Table 16)): 0.95 % dose/g
- Biodistribution in rats: Lungs (10 min (Table 16)): 2.44 % dose/g
- Biodistribution in rats: Muscle (10 min (Table 16)): 0.13 % dose/g
- Biodistribution in rats: Spleen (10 min (Table 16)): 1.16 % dose/g
- Biodistribution in rats: Submax. glands (10 min (Table 16)): 0.92 % dose/g
- Biodistribution in rats: Adrenal glands (10 min post injection): 2.70 % dose/g
- Biodistribution in rats: Blood (10 min post injection): 0.04 % dose/g
- Biodistribution in rats: Brain (10 min post injection): 0.02 % dose/g
- Biodistribution in rats: Heart (10 min post injection): 2.91 % dose/g
- Biodistribution in rats: Intestine (10 min post injection): 7.12 % dose/g
- Biodistribution in rats: Kidneys (10 min post injection): 5.98 % dose/g
- Biodistribution in rats: Liver (10 min post injection): 1.54 % dose/g
- Biodistribution in rats: Lungs (10 min post injection): 0.73 % dose/g
- Biodistribution in rats: Muscle (10 min post injection): 0.22 % dose/g
- Biodistribution in rats: Spleen (10 min post injection): 1.28 % dose/g
- Biodistribution in rats: Submax. glands (10 min post injection): 1.40 % dose/g
- Biodistribution in rats: Adrenal glands (20 min post injection): 2.70 % dose/g
- Biodistribution in rats: Blood (20 min post injection): 0.02 % dose/g
- Biodistribution in rats: Brain (20 min post injection): 0.01 % dose/g
- Biodistribution in rats: Heart (20 min post injection): 2.86 % dose/g
- Biodistribution in rats: Intestine (20 min post injection): 7.44 % dose/g
- Biodistribution in rats: Kidneys (20 min post injection): 5.31 % dose/g
- Biodistribution in rats: Liver (20 min post injection): 1.09 % dose/g
- Biodistribution in rats: Lungs (20 min post injection): 0.50 % dose/g
- Biodistribution in rats: Muscle (20 min post injection): 0.20 % dose/g
- Biodistribution in rats: Spleen (20 min post injection): 1.20 % dose/g
- Biodistribution in rats: Submax. glands (20 min post injection): 1.85 % dose/g
- Biodistribution in rats: Adrenal glands (30 min post injection): 2.72 % dose/g
- Biodistribution in rats: Blood (30 min post injection): 0.02 % dose/g
- Biodistribution in rats: Brain (30 min post injection): 0.01 % dose/g
- Biodistribution in rats: Heart (30 min post injection): 2.47 % dose/g
- Biodistribution in rats: Intestine (30 min post injection): 8.36 % dose/g
- Biodistribution in rats: Kidneys (30 min post injection): 5.28 % dose/g
- Biodistribution in rats: Liver (30 min post injection): 1.06 % dose/g
- Biodistribution in rats: Lungs (30 min post injection): 0.45 % dose/g
- Biodistribution in rats: Muscle (30 min post injection): 0.13 % dose/g
- Biodistribution in rats: Spleen (30 min post injection): 0.35 % dose/g
- Biodistribution in rats: Submax. glands (30 min post injection): 1.51 % dose/g
- Biodistribution in rats: Adrenal glands (60 min post injection): 2.23 % dose/g
- Biodistribution in rats: Blood (60 min post injection): 0.02 % dose/g
- Biodistribution in rats: Brain (60 min post injection): 0.00 % dose/g
- Biodistribution in rats: Heart (60 min post injection): 2.74 % dose/g
- Biodistribution in rats: Intestine (60 min post injection): 8.29 % dose/g
- Biodistribution in rats: Kidneys (60 min post injection): 5.12 % dose/g
- Biodistribution in rats: Liver (60 min post injection): 0.43 % dose/g
- Biodistribution in rats: Lungs (60 min post injection): 0.35 % dose/g
- Biodistribution in rats: Muscle (60 min post injection): 0.15 % dose/g
- Biodistribution in rats: Spleen (60 min post injection): 0.73 % dose/g
- Biodistribution in rats: Submax. glands (60 min post injection): 1.79 % dose/g
- Biodistribution in rats: Adrenal glands (120 min post injection): 2.98 % dose/g
- Biodistribution in rats: Blood (120 min post injection): 0.01 % dose/g
- Biodistribution in rats: Brain (120 min post injection): 0.01 % dose/g
- Biodistribution in rats: Heart (120 min post injection): 2.44 % dose/g
- Biodistribution in rats: Intestine (120 min post injection): 8.00 % dose/g
- Biodistribution in rats: Kidneys (120 min post injection): 4.50 % dose/g
- Biodistribution in rats: Liver (120 min post injection): 0.23 % dose/g
- Biodistribution in rats: Lungs (120 min post injection): 0.22 % dose/g
- Biodistribution in rats: Muscle (120 min post injection): 0.19 % dose/g
- Biodistribution in rats: Spleen (120 min post injection): 0.41 % dose/g
- Biodistribution in rats: Submax. glands (120 min post injection): 1.38 % dose/g

Structure (SMILES): CCOCCN1CC[P](CCCOC)(CCCOC)[99Tc+]2(#[N])([S]C(N(CCOCC)C(C)C)=[S]2)[P](CCCOC)(CCCOC)CC1 [[^99mTc(N) (PNP5) (ISOET)^+]]
- Heart/liver ratio in biodistribution (0 min): 3.53
- Heart/lung ratio in biodistribution (0 min): 1.37
- Heart/liver ratio in biodistribution (2 min): 0.83
- Heart/lung ratio in biodistribution (2 min): 3.15
- Heart/liver ratio in biodistribution (10 min): 1.90
- Heart/lung ratio in biodistribution (10 min): 3.99
- Heart/liver ratio in biodistribution (20 min): 2.62
- Heart/lung ratio in biodistribution (20 min): 5.72
- Heart/liver ratio in biodistribution (30 min): 2.33
- Heart/lung ratio in biodistribution (30 min): 5.49
- Heart/liver ratio in biodistribution (60 min): 6.37
- Heart/lung ratio in biodistribution (60 min): 7.83
- Heart/liver ratio in biodistribution (120 min): 10.61
- Heart/lung ratio in biodistribution (120 min): 11.09

Structure (SMILES): CCOCCC[P]1(CCCOCC)CCN(CCOCC)CC[P](CCCOCC)(CCCOCC)[99Tc+]12(#[N])[S]C(N(CCOCC)CCOCC)=[S]2 [[^99mTc(N) (PNP6) (DBODC)^+]]
- Heart/liver ratio in biodistribution (0 min): 0.63
- Heart/lung ratio in biodistribution (0 min): 0.58
- Heart/liver ratio in biodistribution (2 min): 0.21
- Heart/lung ratio in biodistribution (2 min): 0.99
- Heart/liver ratio in biodistribution (10 min): 0.18
- Heart/lung ratio in biodistribution (10 min): 1.26
- Heart/liver ratio in biodistribution (20 min): 0.18
- Heart/lung ratio in biodistribution (20 min): 1.48
- Heart/liver ratio in biodistribution (30 min): 0.23
- Heart/lung ratio in biodistribution (30 min): 1.75
- Heart/liver ratio in biodistribution (60 min): 0.31
- Heart/lung ratio in biodistribution (60 min): 2.29
- Heart/liver ratio in biodistribution (120 min): 0.51
- Heart/lung ratio in biodistribution (120 min): 3.91

Structure (SMILES): CCOCCN(CCOCC)C1=[S][99Tc+]2(#[N])([S]1)[P](CCCOC)(CCCOC)CCN(CCOC)CC[P]2(CCCOC)CCCOC [[^99m−Tc(N) (PNP3) (DBODC)^+]]
- Heart accumulation (0 min): 3.57 ± 0.14 % ID/g
- Heart/liver ratio in biodistribution (0 min): 2.45
- Heart/lung ratio in biodistribution (0 min): 2.32
- Heart accumulation (2 min): 3.42 ± 0.19 % ID/g
- Heart/liver ratio in biodistribution (2 min): 1.99
- Heart/lung ratio in biodistribution (2 min): 3.39
- Heart accumulation (10 min): 3.65 ± 0.56 % ID/g
- Heart/liver ratio in biodistribution (10 min): 2.55
- Heart/lung ratio in biodistribution (10 min): 4.74
- Heart accumulation (20 min): 3.32 ± 0.18 % ID/g
- Heart/liver ratio in biodistribution (20 min): 3.82
- Heart/lung ratio in biodistribution (20 min): 3.95
- Heart accumulation (30 min): 3.27 ± 0.36 % ID/g
- Heart/liver ratio in biodistribution (30 min): 7.79
- Heart/lung ratio in biodistribution (30 min): 4.74
- Heart accumulation (60 min): 3.27 ± 0.62 % ID/g
- Heart/liver ratio in biodistribution (60 min): 20.44
- Heart/lung ratio in biodistribution (60 min): 9.60
- Heart accumulation (120 min): 3.00 ± 0.42 % ID/g
- Heart/liver ratio in biodistribution (120 min): 25.01
- Heart/lung ratio in biodistribution (120 min): 11.10
